From US9434763B2, “Derivatives of pyridinone as inhibitors for tissue transglutaminase” (ZEDIRA GMBH, priority 2012, dated 2016)

Tests used:
Format in all cases: biochemical
[1] = target: T1, FXIII (plasma transglutaminase, factor XIII) (Homo sapiens, UniProt P00488); assay: Comparative transglutaminase selectivity assay with casein and dansylcadaverine as substrates: FXIII; details: casein as substrate
T1 construct: purchased Zedira T027
T1 sequence (P00488 1-732): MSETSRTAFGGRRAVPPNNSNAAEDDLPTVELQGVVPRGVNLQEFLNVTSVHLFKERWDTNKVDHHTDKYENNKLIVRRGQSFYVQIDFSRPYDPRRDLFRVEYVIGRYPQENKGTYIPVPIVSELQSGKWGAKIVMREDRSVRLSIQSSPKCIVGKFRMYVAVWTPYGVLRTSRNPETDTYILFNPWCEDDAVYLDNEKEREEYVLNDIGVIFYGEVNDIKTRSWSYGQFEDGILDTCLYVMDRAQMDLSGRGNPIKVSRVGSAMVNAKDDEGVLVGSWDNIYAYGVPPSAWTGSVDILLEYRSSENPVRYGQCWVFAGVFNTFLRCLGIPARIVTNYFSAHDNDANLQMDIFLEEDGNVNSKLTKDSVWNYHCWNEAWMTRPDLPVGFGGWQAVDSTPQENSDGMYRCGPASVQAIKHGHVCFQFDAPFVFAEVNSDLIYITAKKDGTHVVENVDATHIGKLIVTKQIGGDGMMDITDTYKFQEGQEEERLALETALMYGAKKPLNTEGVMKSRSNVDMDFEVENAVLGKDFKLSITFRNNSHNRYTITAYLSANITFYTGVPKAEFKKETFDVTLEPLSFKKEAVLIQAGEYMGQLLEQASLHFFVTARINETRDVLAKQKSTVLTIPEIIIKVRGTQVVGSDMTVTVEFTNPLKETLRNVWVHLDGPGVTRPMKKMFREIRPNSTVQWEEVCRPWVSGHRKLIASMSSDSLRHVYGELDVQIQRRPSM
Source text: (§1) The comparative determination of different transglutaminases to determine the selectivity was made with casein and dansylcadaverine as substrates. Therefore, the kit T036 (Zedira, Darmstadt; Refs: Lorand et al, Anal Biochem, 1971, 44:221-31) as well as transglutaminase products T009 (transglutaminase 1), T012 (transglutaminase 3), T021 (transglutaminase 6) and T027 (plasma transglutaminase, factor XIII) are used. Therefore, two different IC50 values for the compounds are given.
(§2) The evaluation of the resulting enzyme activity is done using the slope of the straight line obtained by the increase in fluorescence.
(§3) To determine the non-inhibited enzyme activity, DMSO instead of inhibitor stock solution is used. IC50 values are determined by plotting the resulting enzyme activity against the logarithm of the inhibitor concentration. IC50 is defined as the concentration of inhibitor resulting in 50% of enzyme activity.
(§4) It should be noted that it was measured here against casein as substrate, which is why other apparent inhibition values (IC50 value) result.

TG6 (transglutaminase 6) = target: T2, TG6 (transglutaminase 6) (Homo sapiens, UniProt O95932); assay: Comparative transglutaminase selectivity assay with casein and dansylcadaverine as substrates: TG6; details: casein as substrate
T2 construct: purchased Zedira T021
T2 sequence (O95932 1-706): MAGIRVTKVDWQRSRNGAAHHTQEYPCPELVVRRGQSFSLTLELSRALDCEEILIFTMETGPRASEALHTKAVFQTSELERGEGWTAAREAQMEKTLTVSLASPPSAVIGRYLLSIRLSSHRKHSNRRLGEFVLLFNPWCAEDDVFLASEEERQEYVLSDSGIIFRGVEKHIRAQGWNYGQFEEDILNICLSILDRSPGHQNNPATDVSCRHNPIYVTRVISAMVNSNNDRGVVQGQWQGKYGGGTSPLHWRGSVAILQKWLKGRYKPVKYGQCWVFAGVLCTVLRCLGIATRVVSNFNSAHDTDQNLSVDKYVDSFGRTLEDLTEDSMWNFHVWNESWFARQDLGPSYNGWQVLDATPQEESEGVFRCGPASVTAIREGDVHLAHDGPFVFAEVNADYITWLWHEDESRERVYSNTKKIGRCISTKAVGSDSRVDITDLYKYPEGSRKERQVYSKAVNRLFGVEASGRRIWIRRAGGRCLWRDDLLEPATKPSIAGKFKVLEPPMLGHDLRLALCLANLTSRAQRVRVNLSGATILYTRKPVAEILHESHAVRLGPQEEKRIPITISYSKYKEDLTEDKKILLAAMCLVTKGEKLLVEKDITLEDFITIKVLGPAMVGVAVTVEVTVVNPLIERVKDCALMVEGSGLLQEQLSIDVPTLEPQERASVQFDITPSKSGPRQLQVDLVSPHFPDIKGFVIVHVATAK
Source text: as §1, §2, §3, §4

[2] = target: T3, tissue transglutaminase (TG2) (Homo sapiens, UniProt P21980); assay: Comparative transglutaminase selectivity assay with casein and dansylcadaverine as substrates (kit T036): TG2; details: casein as substrate (apparent IC50)
T3 construct: purchased Zedira T036 (kit)
T3 sequence (P21980 1-687): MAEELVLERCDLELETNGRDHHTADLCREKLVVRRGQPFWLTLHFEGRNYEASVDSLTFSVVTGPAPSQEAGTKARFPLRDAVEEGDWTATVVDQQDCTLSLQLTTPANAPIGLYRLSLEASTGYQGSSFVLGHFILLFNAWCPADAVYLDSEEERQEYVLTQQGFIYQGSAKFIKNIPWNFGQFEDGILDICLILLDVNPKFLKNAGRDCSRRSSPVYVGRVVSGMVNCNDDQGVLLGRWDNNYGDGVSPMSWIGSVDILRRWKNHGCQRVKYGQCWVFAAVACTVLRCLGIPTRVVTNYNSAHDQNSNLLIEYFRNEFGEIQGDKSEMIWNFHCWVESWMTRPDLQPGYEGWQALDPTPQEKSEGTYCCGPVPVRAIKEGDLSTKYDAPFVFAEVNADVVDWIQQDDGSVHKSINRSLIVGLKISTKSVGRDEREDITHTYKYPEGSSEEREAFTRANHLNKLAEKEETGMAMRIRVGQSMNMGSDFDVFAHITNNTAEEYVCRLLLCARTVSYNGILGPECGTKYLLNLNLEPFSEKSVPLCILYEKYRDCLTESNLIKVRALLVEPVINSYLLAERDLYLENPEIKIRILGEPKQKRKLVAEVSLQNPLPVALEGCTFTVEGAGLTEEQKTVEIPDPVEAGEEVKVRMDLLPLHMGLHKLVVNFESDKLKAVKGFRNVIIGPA
Source text: as §1, §2, §3, §4

Compound	IC50 [1] [µM]	IC50 (TG6 (transglutaminase 6)) [µM]	IC50 [2] [µM]
CCOC(=O)/C=C/CC[C@H](NC(C)=O)C(=O)Nc1cccn(CC(=O)NCCC(C)C)c1=O [A7, (S,E)-Ethyl 6-acetamido-7-(1-(2-(isopentylamino)-2-oxoethyl)-2-oxo-1,2-dihydropyridin-3-ylamino)-7-oxohept-2-enoate]	105	51	3.6
COC(=O)/C=C/CC[C@H](NC(C)=O)C(=O)Nc1cccn(CC(=O)NCCC(C)C)c1=O [A29, (S,E)-methyl 6-acetamido-7-(1-(2-(isopentylamino)-2-oxoethyl)-2-oxo-1,2-dihydropyridin-3-ylamino)-7-oxohept-2-enoate]	67.4	83.3	0.4
CCOC(=O)/C=C/CC[C@H](NC(=O)CCC(=O)O)C(=O)Nc1cccn(CC(=O)NCC(CC)CC)c1=O [A30, (S,E)-4-(7-Ethoxy-1-(1-(2-(2-ethylbutylamino)-2-oxoethyl)-2-oxo-1,2-dihydropyridin-3-ylamino)-1,7-dioxohept-5-en-2-ylamino)-4-oxobutanoic acid]	90.9	32.8	3.26
CCOC(=O)/C=C/CC[C@H](NC(C)=O)C(=O)Nc1cccn(CC(=O)NCCC(CC)CC)c1=O [A42, (S,E)-ethyl 6-acetamido-7-(1-(2-(3-ethylpentylamino)-2-oxoethyl)-2-oxo-1,2-dihydropyridin-3-ylamino)-7-oxohept-2-enoate]	109	36.7	7.1
CCOC(=O)/C=C/CC[C@H](NC(=O)c1cncn1C)C(=O)Nc1cccn(CC(=O)N[C@H](C(=O)O)[C@H](C)CC)c1=O [A53, (2S,3R)-2-(2-(3-((S,E)-7-Ethoxy-2-(1-methyl-1H-imidazole-5-carboxamido)-7-oxohept-5-enamido)-2-oxopyridin-1(2H)-yl)acetamido)-3-methylpentanoic acid]	77.7	26.2	0.833
CCOC(=O)/C=C/CC[C@H](NC(=O)c1cncn1C)C(=O)Nc1cccn(CC(=O)NCC(CC)CC)c1=O [A58, (S,E)-Ethyl 7-(1-(2-(2-ethylbutylamino)-2-oxoethyl)-2-oxo-1,2-dihydropyridin-3-ylamino)-6-(1-methyl-1H-imidazole-5-carboxamido)-7-oxohept-2-enoate]	120	66	1.54
CCOC(=O)/C=C/CC[C@H](NC(=O)c1ccccc1)C(=O)Nc1cccn(CC(=O)N[C@H](C(=O)O)[C@H](C)CC)c1=O [A59, (2S,3R)-2-(2-(3-((S,E)-2-Benzamido-7-ethoxy-7-oxohept-5-enamido)-2-oxopyridin-1(2H)-yl)acetamido)-3-methylpentanoic acid]	79.6	9.3	0.461
CC[C@@H](C)[C@H](NC(=O)Cn1cccc(NC(=O)[C@H](CC/C=C/C(=O)OC)NC(=O)c2cncn2C)c1=O)C(=O)O [A60, (2S,3R)-2-(2-(3-((S,E)-7-Methoxy-2-(1-methyl-1H-imidazole-5-carboxamido)-7-oxohept-5-enamido)-2-oxopyridin-1(2H)-yl)acetamido)-3-methylpentanoic acid]	73.2	11.5	0.112
CC[C@@H](C)[C@H](NC(=O)Cn1cccc(NC(=O)[C@H](CC/C=C/C(=O)OC)NC(=O)c2ccccc2)c1=O)C(=O)O [A61, (2S,3R)-2-(2-(3-((S,E)-2-benzamido-7-methoxy-7-oxohept-5-enamido)-2-oxopyridin-1(2H)-yl)acetamido)-3-methylpentanoic acid]	63.4	4.3	0.079
CCC(CC)CNC(=O)Cn1cccc(NC(=O)[C@H](CC/C=C/C(=O)OC)NC(=O)c2cncn2C)c1=O [A63, (S,E)-Methyl 7-(1-(2-(2-ethylbutylamino)-2-oxoethyl)-2-oxo-1,2-dihydropyridin-3-ylamino)-6-(1-methyl-1H-imidazole-5-carboxamido)-7-oxohept-2-enoate]	89	31.5	0.218

The remaining molecules from weak to strong by IC50 [1], led by results:

IC50 [1] [µM]	IC50 (TG6 (transglutaminase 6)) [µM]	IC50 [2] [µM]	Compound
133	38.5	7.5	CCOC(=O)/C=C/CC[C@H](NC(=O)CCC(=O)O)C(=O)Nc1cccn(CC(=O)NCCC(C)C)c1=O [A24, (S,E)-4-(7-Ethoxy-1-(1-(2-(isopentylamino)-2-oxoethyl)-2-oxo-1,2-dihydropyridin-3-ylamino)-1,7-dioxohept-5-en-2-ylamino)-4-oxobutanoic acid]
122	47	1.96	CCOC(=O)/C=C/CC[C@H](NC(C)=O)C(=O)Nc1cccn(CC(=O)NCC(CC)CC)c1=O [A62, (S,E)-Ethyl 6-acetamido-7-(1-(2-(2-ethylbutylamino)-2-oxoethyl)-2-oxo-1,2-dihydropyridin-3-ylamino)-7-oxohept-2-enoate]
120	109	3	COC(=O)/C=C/CC[C@H](NC(C)=O)C(=O)Nc1cccn(CC(=O)N2CCCC(C)C2)c1=O (stereo partly drawn) [A64, (6S,E)-Methyl 6-acetamido-7-(1-(2-(3-methylpipendin-1-yl)-2-oxoethyl)-2-oxo-1,2-dihydropyridin-3-ylamino)-7-oxohept-2-enoate]
81.1	54.3	2.39	CCOC(=O)/C=C/CC[C@H](NC(=O)c1cncn1C)C(=O)Nc1cccn(CC(=O)NCCC(C)C)c1=O [A19, (S,E)-Ethyl 7-(1-(2-(isopentylamino)-2-oxoethyl)-2-oxo-1,2-dihydropyridin-3-ylamino)-6-(1-methyl-1H-imidazole-5-carboxamido)-7-oxohept-2-enoate]
70.7	21.3	1	CCOC(=O)/C=C/CC[C@H](NC(C)=O)C(=O)Nc1cccn(CC(=O)N[C@H](C(=O)OC)[C@H](C)CC)c1=O [A35, (S,E)-ethyl 6-acetamido-7-(1-(2-((2S,3R)-1-methoxy-3-methyl-1-oxopentan-2-ylamino)-2-oxoethyl)-2-oxo-1,2-dihydropyridin-3-ylamino)-7-oxohept-2-enoate]
